# Key:
# [1] = biological target: PDE3 from human platelets (Homo sapiens, UniProt Q14432); experiment: PDE3 enzyme assay; format: biochemical; conditions: from PDE inhibition data of Table 1
# [2] = biological target: PDE5 from human platelets (Homo sapiens, UniProt O76074); experiment: PDE5 enzyme assay; format: biochemical; conditions: from PDE inhibition data of Table 1
# conscious ferret = experiment: Emesis and behavioral changes in conscious ferrets after oral dosing; format: in vivo; conditions: for Ataxia / Backward walking / Flattened posture / Lip licking / Mouth clawing / Panting / Retches / Salivation / Vomits: oral, (animals that responded/group)
# Protocol: PDE4 inhibitors were administered orally (p.o.), at doses initially of […], but subsequently up to 30 mg/kg in order to establish whether the TI was 10 or higher, and/or at lower doses to establish the minimum dose to cause 50% inhibition of neutrophilia. Ferrets were fasted overnight but allowed free access to water. The animals were orally dosed with vehicle or PDE4 inhibitor using a 15 cm dosing needle that was passed down the back of the throat into the oesophagus. After dosing, the animals were returned to holding cages fitted with Perspex doors to allow observation, and given free access to water. After dosing, the animals were constantly observed and any emesis or behavioral changes were recorded. The animals were allowed access to food 60 to 90 minutes after p.o. dosing.
# Thirty minutes after p.o. dosing with compound or vehicle control, the ferrets were placed into sealed Perspex containers and exposed to an aerosol of LPS (100 µg/ml) for 10 minutes. Aerosols of LPS were generated by a nebulizer (DeVilbiss, USA) and this was directed into the Perspex exposure chamber. Following a 10 minute exposure period, the animals were returned to the holding cages and allowed free access to water, and at a later stage, food. Observation continued for a period of at least 2.5 hours post p.o. dosing and emetic episodes and behavioral changes were recorded.
# • 1. % Inhibition of LPS-induced pulmonary neutrophilia. • 2. Emetic episodes - the number of vomits and retches were counted. • 3. Behavioral changes - the following behavioral effects were noted: salivation, panting, mouth clawing, flattened posture, ataxia, arched back and backward walking. Any behavioral changes were semi-quantified by applying a severity rating (mild, moderate or severe). • 4. The TI was calculated as the highest dose found to not cause emetic episodes divided by the lowest dose found to inhibit pulmonary neutrophilia by 50% or more.
# Numbers in parentheses refer to the number of animals that responded. The numbers of animals in each group range from 4 to 22.
# [3] = test system: subjects with moderate to severe plaque-type psoriasis; experiment: Phase 2 randomized double-blind placebo-controlled study in moderate to severe plaque-type psoriasis; format: in vivo, human
# Protocol: This phase 2, multicenter, randomized, double-blind, placebo-controlled, parallel-group, dose-comparison study evaluated the efficacy and safety of Compound A in subjects with moderate to severe plaque-type psoriasis who were candidates for systemic therapy.
# This study included a 12-week treatment phase followed by a 4-week observational follow-up phase. A total of 260 subjects were randomized to receive Compound A 20 mg BID, Compound A 20 mg QD, or placebo for 12 weeks. The primary endpoint for this study was the proportion of subjects treated with Compound A who achieved a 75% reduction in Psoriasis Area and Severity Index score ("PASI-75") at week 12/last treatment in reference to the baseline visit. Last treatment is defined as the last PASI assessment completed during the 12-week treatment phase.
# [4] = test system: patients with severe plaque-type psoriasis
# [5] = 20 mg orally daily, number of patients
# [6] = responders (≥ 20% epidermal thickness reduction), 8 patients, Day 29
# PDE3 from human platelets, sequence (Q14432 whole entry): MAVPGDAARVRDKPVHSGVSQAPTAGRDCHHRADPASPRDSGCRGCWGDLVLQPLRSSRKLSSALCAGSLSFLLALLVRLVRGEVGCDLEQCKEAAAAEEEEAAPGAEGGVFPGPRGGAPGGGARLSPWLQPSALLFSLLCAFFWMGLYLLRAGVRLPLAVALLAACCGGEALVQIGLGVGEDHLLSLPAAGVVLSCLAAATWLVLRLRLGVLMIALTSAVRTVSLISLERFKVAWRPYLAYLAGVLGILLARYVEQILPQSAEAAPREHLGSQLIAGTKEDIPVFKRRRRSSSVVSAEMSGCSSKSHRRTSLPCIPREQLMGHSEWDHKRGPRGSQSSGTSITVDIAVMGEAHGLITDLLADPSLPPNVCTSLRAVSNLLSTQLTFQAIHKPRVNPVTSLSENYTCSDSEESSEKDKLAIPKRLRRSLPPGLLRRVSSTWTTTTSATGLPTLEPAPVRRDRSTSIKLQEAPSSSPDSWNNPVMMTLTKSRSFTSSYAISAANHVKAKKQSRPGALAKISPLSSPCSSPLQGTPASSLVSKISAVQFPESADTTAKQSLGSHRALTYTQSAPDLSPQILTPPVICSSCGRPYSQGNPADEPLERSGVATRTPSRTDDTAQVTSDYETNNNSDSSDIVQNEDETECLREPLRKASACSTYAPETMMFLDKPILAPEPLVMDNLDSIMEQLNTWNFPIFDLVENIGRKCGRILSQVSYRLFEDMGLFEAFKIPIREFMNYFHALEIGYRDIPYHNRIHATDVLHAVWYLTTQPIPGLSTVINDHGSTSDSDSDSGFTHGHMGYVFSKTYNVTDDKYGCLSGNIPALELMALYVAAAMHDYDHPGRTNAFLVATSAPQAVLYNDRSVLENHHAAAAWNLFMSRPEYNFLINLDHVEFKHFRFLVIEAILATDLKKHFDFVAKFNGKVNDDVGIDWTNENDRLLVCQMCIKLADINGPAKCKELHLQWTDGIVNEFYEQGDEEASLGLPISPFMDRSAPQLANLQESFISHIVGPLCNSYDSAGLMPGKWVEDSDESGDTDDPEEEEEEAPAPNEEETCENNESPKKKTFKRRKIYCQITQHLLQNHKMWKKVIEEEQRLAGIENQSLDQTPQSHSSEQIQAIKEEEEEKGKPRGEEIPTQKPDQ
smiles,measurement,setting,value
"CCOc1cc(C(CS(C)(=O)=O)N2C(=O)c3cccc(NC(C)=O)c3C2=O)ccc1OC (single isomer, unassigned; (+)) [Compound A, (+)-2-[1-(3-ethoxy-4-methoxyphenyl)-2-methylsulfonylethyl]-4-acetylaminoisoindoline-1,3-dione]",PDE Specificity Ratio PDE4/PDE3,[1],>1200 fold
same,PDE Specificity Ratio PDE4/PDE5,[2],>30000 fold
same,emetic episodes,"conscious ferret; 10 mg/kg p.o., in 2/6 ferrets",some retching but no frank emesis
same,emesis,"conscious ferret; 30 mg/kg p.o. (highest dose tested), in 3/4 animals",moderate to marked emesis
same,"behavioral changes (flattened posture, lip licking and backward walking), severity","conscious ferret; 0.1-3 mg/kg, p.o.",mild
same,emetic episodes (retching and vomiting),"conscious ferret; 0.1-3 mg/kg, p.o.",no emetic episodes
same,Ataxia,conscious ferret; 0.1 mg/kg,None
same,Backward walking,conscious ferret; 0.1 mg/kg,Mild (3/5)
same,Flattened posture,conscious ferret; 0.1 mg/kg,Mild (2/5)
same,Lip licking,conscious ferret; 0.1 mg/kg,Mild (4/5)
same,Mouth clawing,conscious ferret; 0.1 mg/kg,None
same,Panting,conscious ferret; 0.1 mg/kg,None
same,Retches,conscious ferret; 0.1 mg/kg,None
same,Salivation,conscious ferret; 0.1 mg/kg,None
same,Vomits,conscious ferret; 0.1 mg/kg,None
same,Ataxia,conscious ferret; 0.3 mg/kg,None
same,Backward walking,conscious ferret; 0.3 mg/kg,Mild (4/6)
same,Flattened posture,conscious ferret; 0.3 mg/kg,Mild (2/6)
same,Lip licking,conscious ferret; 0.3 mg/kg,Mild (3/6)
same,Mouth clawing,conscious ferret; 0.3 mg/kg,None
same,Panting,conscious ferret; 0.3 mg/kg,None
same,Retches,conscious ferret; 0.3 mg/kg,None
same,Salivation,conscious ferret; 0.3 mg/kg,None
same,Vomits,conscious ferret; 0.3 mg/kg,None
same,Ataxia,conscious ferret; 1.0 mg/kg,None
same,Backward walking,conscious ferret; 1.0 mg/kg,Mild (4/6)
same,Flattened posture,conscious ferret; 1.0 mg/kg,Mild (2/6)
same,Lip licking,conscious ferret; 1.0 mg/kg,Mild (6/6)
same,Mouth clawing,conscious ferret; 1.0 mg/kg,None
same,Panting,conscious ferret; 1.0 mg/kg,None
same,Retches,conscious ferret; 1.0 mg/kg,None
same,Salivation,conscious ferret; 1.0 mg/kg,None
same,Vomits,conscious ferret; 1.0 mg/kg,None
same,Ataxia,conscious ferret; 3.0 mg/kg,None
same,Backward walking,conscious ferret; 3.0 mg/kg,Moderate (5/8)
same,Flattened posture,conscious ferret; 3.0 mg/kg,Marked (7/8)
same,Lip licking,conscious ferret; 3.0 mg/kg,Mild (2/8)
same,Mouth clawing,conscious ferret; 3.0 mg/kg,Mild (1/8)
same,Panting,conscious ferret; 3.0 mg/kg,None
same,Retches,conscious ferret; 3.0 mg/kg,None
same,Salivation,conscious ferret; 3.0 mg/kg,None
same,Vomits,conscious ferret; 3.0 mg/kg,None
same,Ataxia,conscious ferret; 10 mg/kg,None
same,Backward walking,conscious ferret; 10 mg/kg,Marked (6/6)
same,Flattened posture,conscious ferret; 10 mg/kg,Marked (6/6)
same,Lip licking,conscious ferret; 10 mg/kg,Moderate (5/6)
same,Mouth clawing,conscious ferret; 10 mg/kg,Mild (1/6)
same,Panting,conscious ferret; 10 mg/kg,None
same,Retches,conscious ferret; 10 mg/kg,Mild (2/6)
same,Salivation,conscious ferret; 10 mg/kg,Mild (1/6)
same,Vomits,conscious ferret; 10 mg/kg,None
same,Ataxia,conscious ferret; 30 mg/kg,Mild (3/4)
same,Backward walking,conscious ferret; 30 mg/kg,Mild (2/4)
same,Flattened posture,conscious ferret; 30 mg/kg,Marked (4/4)
same,Lip licking,conscious ferret; 30 mg/kg,Moderate (4/4)
same,Mouth clawing,conscious ferret; 30 mg/kg,Marked (4/4)
same,Panting,conscious ferret; 30 mg/kg,Mild (1/4)
same,Retches,conscious ferret; 30 mg/kg,Marked (3/4)
same,Salivation,conscious ferret; 30 mg/kg,Moderate (3/4)
same,Vomits,conscious ferret; 30 mg/kg,Moderate (3/4)
same,psoriasis flare during the observational follow-up period,"[3]; 20 mg BID group, 4-week follow-up",No subjects
same,study drug-related serious adverse events,"[3]; 20 mg BID or 20 mg QD, 12 weeks",No study drug-related serious adverse events were reported
same,tolerability and safety (overall conclusion),[3]; 12 weeks of treatment,well tolerated and safe
same,patients with abnormal HLA-DR that had normal HLA-DR at Day 29,[4]; [5],Two
same,patients with abnormal ICAM-1 at baseline that had normal ICAM-1 at Day 29,[4]; [5],Three
same,patients with abnormal K16 at baseline that had normal K16 at Day 29,[4]; [5],one
same,patients with abnormal fillagrin at baseline that had normal fillagrin at Day 29,[4]; [5],three
same,safety (overall conclusion),[4]; 20 mg p.o. QD for 29 days,safe
same,"Percentage Reduction of Key Inflammatory Markers at Day 29: CD11c, Dermis","[4]; Responder, signed change",-18.50%
same,"Percentage Reduction of Key Inflammatory Markers at Day 29: CD11c, Epidermis","[4]; Responder, signed change",-40.16%
same,"Percentage Reduction of Key Inflammatory Markers at Day 29: CD83+, Dermis","[4]; Responder, signed change",-25.86%
same,"Percentage Reduction of Key Inflammatory Markers at Day 29: CD83+, Epidermis","[4]; Responder, signed change",-32.50%
same,"Percentage Reduction of Key Inflammatory Markers at Day 29: T-cells, Dermis","[4]; Responder, signed change",-28.79%
same,"Percentage Reduction of Key Inflammatory Markers at Day 29: T-cells, Epidermis","[4]; Responder, signed change",-42.56%
same,decrease of dermal T-cells,[4]; [6],28.79%
same,decrease of epidermal T-cells,[4]; [6],42.56%
same,CD11c cells reduced in the dermis,"[4]; responders, Day 29",18.50%
same,CD11c cells reduced in the epidermis,"[4]; responders, Day 29",40.16%
same,Mean reduction from baseline in dermal CD83+ cells,"[4]; responders, Day 29",25.86%
same,Mean reduction from baseline in epidermal CD83+ cells,"[4]; responders, Day 29",32.50%
same,deaths,[4]; treatment and follow-up phases,No deaths were reported

# Reference: patent EP2687213B1, “Solid forms comprising (+)-2-[1-(3-ethoxy-4-methoxyphenyl)-2-methylsulfonylethyl]-4-acetylaminoisoindoline-1,3-dione, compositions thereof, and uses thereof” (CELGENE CORPORATION, priority 2008, dated 2009)
